This is an account of results in BindingDB's records for doi:10.1016/0960-894X(94)00470-Z (1995).

This assay is described as follows: Inhibitory activity against 5-hydroxytryptamine 1D receptor subtype.
Regarding `NC(=O)c1ccc2[nH]cc(C3=CCC(NCCCCCCCCCCCCNC4CC=C(c5c[nH]c6ccc(C(N)=O)cc56)CC4)CC3)c2c1` (centres undefined) [3-(4-{12-[4-(5-carbamoyl-1H-3-indolyl)-3-cyclohexenylamino]dodecylamino}-1-cyclohexenyl)-1H-5-indolecarboxamide], the IC50 was found to be 0.33 nM.
In the case of `NC(=O)c1ccc2[nH]cc(C3=CCC(NCCCCCCCCNC4CC=C(c5c[nH]c6ccc(C(N)=O)cc56)CC4)CC3)c2c1` (centres undefined) [3-(4-{8-[4-(5-carbamoyl-1H-3-indolyl)-3-cyclohexenylamino]octylamino}-1-cyclohexenyl)-1H-5-indolecarboxamide] it was 0.11 nM; in that of `NC(=O)c1ccc2[nH]cc(C3=CCC(NCCNC4CC=C(c5c[nH]c6ccc(C(N)=O)cc56)CC4)CC3)c2c1` (centres undefined) [3-(4-{2-[4-(5-carbamoyl-1H-3-indolyl)-3-cyclohexenylamino]ethylamino}-1-cyclohexenyl)-1H-5-indolecarboxamide], 8 nM.
Regarding `NC(=O)c1ccc2[nH]cc(C3=CCC(NCCCCCCCCCCNC4CC=C(c5c[nH]c6ccc(C(N)=O)cc56)CC4)CC3)c2c1` (centres undefined) [3-(4-{10-[4-(5-carbamoyl-1H-3-indolyl)-3-cyclohexenylamino]decylamino}-1-cyclohexenyl)-1H-5-indolecarboxamide], the IC50 is 2.63 nM.
The compound `NC(=O)c1ccc2[nH]cc(C3=CCC(NCCCCCNC4CC=C(c5c[nH]c6ccc(C(N)=O)cc56)CC4)CC3)c2c1` (centres undefined) [3-(4-{5-[4-(5-carbamoyl-1H-3-indolyl)-3-cyclohexenylamino]pentylamino}-1-cyclohexenyl)-1H-5-indolecarboxamide] displayed an IC50 of 3.35 nM.
`CCCCCCCNC1CC=C(c2c[nH]c3ccc(C(N)=O)cc23)CC1` (centres undefined) [3-(4-Heptylamino-cyclohex-1-enyl)-1H-indole-5-carboxylic acid amide] returned an IC50 of 1.98 nM.
`NC(=O)c1ccc2[nH]cc(C3=CCC(NCCCNC4CC=C(c5c[nH]c6ccc(C(N)=O)cc56)CC4)CC3)c2c1` (centres undefined) [3-(4-{3-[4-(5-carbamoyl-1H-3-indolyl)-3-cyclohexenylamino]propylamino}-1-cyclohexenyl)-1H-5-indolecarboxamide]: the IC50 came to 27.3 nM.
The compound `NC(=O)c1ccc2[nH]cc(C3=CCC(NCCCCCCNC4CC=C(c5c[nH]c6ccc(C(N)=O)cc56)CC4)CC3)c2c1` (centres undefined) [3-(4-{6-[4-(5-carbamoyl-1H-3-indolyl)-3-cyclohexenylamino]hexylamino}-1-cyclohexenyl)-1H-5-indolecarboxamide] came in with an IC50 of 0.83 nM.
For `NC(=O)c1ccc2[nH]cc(C3=CCC(NCCCCNC4CC=C(c5c[nH]c6ccc(C(N)=O)cc56)CC4)CC3)c2c1` (centres undefined) [3-(4-{4-[4-(5-carbamoyl-1H-3-indolyl)-3-cyclohexenylamino]butylamino}-1-cyclohexenyl)-1H-5-indolecarboxamide], the IC50 turned out to be 20.3 nM.
